The values below come from PMC8225760, “Residue 6.43 defines receptor function in class F GPCRs” (Nature Communications, 2021).

Common to all, as to format: cell-based
Assay [1] has as its target T1, FZD6 (HiBiT-FZD6; FZD6-Nluc) (Homo sapiens, UniProt O60353, P427F).
T1 construct: full-length receptor; expressed in deltaSMO HEK293A cells; UniProt id given for the homology model
T1 sequence (O60353 19-706 P427F): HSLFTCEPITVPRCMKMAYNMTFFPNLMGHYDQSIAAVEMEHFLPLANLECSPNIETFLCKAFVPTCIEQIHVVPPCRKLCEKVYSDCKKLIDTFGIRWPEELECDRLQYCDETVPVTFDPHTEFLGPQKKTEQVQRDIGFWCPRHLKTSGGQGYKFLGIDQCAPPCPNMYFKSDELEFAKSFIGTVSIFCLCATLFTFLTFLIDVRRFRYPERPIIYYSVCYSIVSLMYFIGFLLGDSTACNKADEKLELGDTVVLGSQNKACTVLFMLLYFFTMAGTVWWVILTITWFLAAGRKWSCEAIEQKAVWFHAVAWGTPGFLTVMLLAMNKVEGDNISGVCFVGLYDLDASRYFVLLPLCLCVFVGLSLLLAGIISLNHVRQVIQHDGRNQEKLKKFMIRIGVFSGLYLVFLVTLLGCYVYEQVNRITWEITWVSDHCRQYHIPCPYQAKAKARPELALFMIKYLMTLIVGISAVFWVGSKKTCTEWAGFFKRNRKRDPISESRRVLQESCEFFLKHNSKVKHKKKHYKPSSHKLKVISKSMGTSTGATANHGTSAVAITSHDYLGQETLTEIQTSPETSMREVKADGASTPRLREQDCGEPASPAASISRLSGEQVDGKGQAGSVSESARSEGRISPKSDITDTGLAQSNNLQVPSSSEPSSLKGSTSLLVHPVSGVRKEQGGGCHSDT
Put plainly: NanoBiT/BRET saturation binding in live cells. Particulars: HBSS, 90 min, 37 °C; cell-surface receptor; upper 7TM site; labelled compound; error SD. In general terms: BRET reads energy transfer from a luciferase to a nearby fluorophore.

Assay [2] deals with T2, FZD6 (HiBiT-FZD6; FZD6-Nluc) (Homo sapiens, UniProt O60353).
T2 construct: full-length receptor; expressed in deltaSMO HEK293A cells; UniProt id given for the homology model
T2 sequence (O60353 19-706): T1 sequence (O60353 19-706 P427F) with F409P
Briefly: NanoBiT/BRET saturation binding in live cells. To be noted: HBSS, 90 min, 37 °C; cell-surface receptor; upper 7TM site; labelled compound; error SD.

Assay [3] concerns the target T3, SMO (HiBiT-SMO; SMO-Nluc) (Mus musculus, UniProt P56726).
T3 construct: full-length receptor; C-terminal Nluc (SMO-Nluc) for miniGsi recruitment; expressed in deltaSMO HEK293A cells
Briefly: NanoBiT/BRET saturation binding in live cells. To be noted: HBSS, 90 min, 37 °C; cell-surface receptor; monophasic, lower 7TM site; labelled compound; error SD.

Assay [4] concerns the target T4, SMO (HiBiT-SMO; SMO-Nluc) (Mus musculus, UniProt P56726, F466P).
T4 construct: full-length receptor; C-terminal Nluc (SMO-Nluc) for miniGsi recruitment; expressed in deltaSMO HEK293A cells
Put plainly: NanoBiT/BRET saturation binding in live cells. Particulars: HBSS, 90 min, 37 °C; cell-surface receptor; labelled compound; error SD.

For assay [5], the target named is T2, FZD6 (HiBiT-FZD6; FZD6-Nluc). Briefly: BRET Venus-mGsi recruitment to receptor-Nluc in deltaSMO HEK293A cells. To be noted: agonist; bell-shaped concentration response; read 5 min after addition.

Changes are numbered by the printed parent chain.

T4 sequence (P56726 33-793 F466P): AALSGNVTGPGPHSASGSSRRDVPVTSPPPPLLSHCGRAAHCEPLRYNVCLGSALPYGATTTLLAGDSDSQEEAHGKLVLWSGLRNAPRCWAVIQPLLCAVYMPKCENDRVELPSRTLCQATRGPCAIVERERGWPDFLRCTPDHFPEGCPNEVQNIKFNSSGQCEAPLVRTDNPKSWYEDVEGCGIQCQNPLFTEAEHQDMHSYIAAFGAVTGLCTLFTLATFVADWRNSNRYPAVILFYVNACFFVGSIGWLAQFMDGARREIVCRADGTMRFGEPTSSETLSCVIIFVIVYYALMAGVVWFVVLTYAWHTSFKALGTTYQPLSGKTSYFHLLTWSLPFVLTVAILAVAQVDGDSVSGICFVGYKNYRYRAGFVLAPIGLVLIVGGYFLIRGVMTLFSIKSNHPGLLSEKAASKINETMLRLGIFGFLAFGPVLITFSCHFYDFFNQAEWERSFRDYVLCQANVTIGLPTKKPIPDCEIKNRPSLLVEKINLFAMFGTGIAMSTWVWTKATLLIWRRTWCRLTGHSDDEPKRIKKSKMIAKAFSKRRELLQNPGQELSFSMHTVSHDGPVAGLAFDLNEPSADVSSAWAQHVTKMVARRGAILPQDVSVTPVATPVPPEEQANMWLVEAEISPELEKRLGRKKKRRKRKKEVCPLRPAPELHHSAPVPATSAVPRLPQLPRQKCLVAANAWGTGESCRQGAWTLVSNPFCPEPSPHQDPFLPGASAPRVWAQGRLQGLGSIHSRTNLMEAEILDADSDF
T3 sequence (P56726 33-793): as the sequence (P56726 33-793 F466P) above, with P434F counted along it

On to `CC1=C2CC3C(CC=C4C[C@@H](O)CCC43C)C2CCC12O[C@@H]1CC(C)CN(CCNC(=O)CCCCCNC(=O)CCC3=[N+]4C(=Cc5c(C)cc(C)n5[B-]4(F)F)C=C3)C1C2C` (some centres unmarked) [BODIPY-cyclopamine], for which the pKd in assay [1] is 6.28 ± 0.20 -log10 M; in assay [2], 6.45 ± 0.23 -log10 M; in assay [3], 6.87 ± 0.13 -log10 M; in assay [4], 5.44 ± 1.02 -log10 M.

`CN[C@H]1CC[C@H](N(Cc2cccc(-c3ccncc3)c2)C(=O)c2sc3ccccc3c2Cl)CC1` [SAG1.3]: the “BRET Venus-mGsi recruitment to receptor-Nluc in deltaSMO HEK293A cells” value in assay [5] is recorded as “SAG1.3-induced mGsi recruitment to SMO, while that to FZD6 remained unaffected”.
